In patent publication US7563781B2, “Triazolopyrimidine derivatives” (Janssen Pharmaceutica NV, priority 2006, dated 2009) one finds inhibition data, which are given here for 26 compounds.

The structures appear in SMILES notation.

For assay [1], the target named is T1, Focal Adhesion Kinase (full-length Flag-tagged human FAK) (Homo sapiens, UniProt Q05397).
T1 construct: a purified recombinant full-length Flag-tagged human FAK protein; Flag; made in house; host or cells: baculovirus infected insect cells
T1 sequence (Q05397 whole entry): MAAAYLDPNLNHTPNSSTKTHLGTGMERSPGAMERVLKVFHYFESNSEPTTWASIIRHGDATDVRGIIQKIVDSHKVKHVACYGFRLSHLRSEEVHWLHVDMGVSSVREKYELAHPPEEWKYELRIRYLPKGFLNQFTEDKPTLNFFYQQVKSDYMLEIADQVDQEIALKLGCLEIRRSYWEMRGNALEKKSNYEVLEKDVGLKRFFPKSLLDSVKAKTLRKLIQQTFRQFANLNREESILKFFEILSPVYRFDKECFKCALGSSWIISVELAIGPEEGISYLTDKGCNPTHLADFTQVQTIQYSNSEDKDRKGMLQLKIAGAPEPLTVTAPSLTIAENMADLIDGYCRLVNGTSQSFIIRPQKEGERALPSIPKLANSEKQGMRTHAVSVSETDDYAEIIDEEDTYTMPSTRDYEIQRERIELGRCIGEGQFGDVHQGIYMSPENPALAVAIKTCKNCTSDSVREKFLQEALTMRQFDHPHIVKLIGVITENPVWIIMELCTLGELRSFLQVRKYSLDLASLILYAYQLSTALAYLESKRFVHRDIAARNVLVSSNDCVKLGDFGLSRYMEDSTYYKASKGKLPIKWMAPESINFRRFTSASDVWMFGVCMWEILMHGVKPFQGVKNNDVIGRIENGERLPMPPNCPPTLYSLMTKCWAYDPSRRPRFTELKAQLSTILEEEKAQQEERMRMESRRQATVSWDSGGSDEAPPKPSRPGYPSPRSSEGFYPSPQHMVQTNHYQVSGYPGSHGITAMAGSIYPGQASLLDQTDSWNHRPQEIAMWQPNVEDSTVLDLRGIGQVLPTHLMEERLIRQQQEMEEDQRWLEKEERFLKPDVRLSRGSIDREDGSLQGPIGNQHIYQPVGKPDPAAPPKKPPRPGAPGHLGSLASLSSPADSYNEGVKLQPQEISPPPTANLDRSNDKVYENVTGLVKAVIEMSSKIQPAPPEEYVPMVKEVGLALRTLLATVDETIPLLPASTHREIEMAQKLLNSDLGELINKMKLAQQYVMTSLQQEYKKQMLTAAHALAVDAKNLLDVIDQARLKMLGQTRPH
The experiment in a line: in vitro FAK ELISA kinase assay. It counts as biochemical. Conditions: compound 10 uM; ATP 2 uM; read-out: FAK % Inhib ave: 10 uM. The procedure, abridged: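 Plate-coated GST fusion of the 73-residue region around Tyr397 phosphorylated by full-length Flag-tagged human FAK from baculovirus-infected insect cells, with 2 μM ATP in Mg/Mn HEPES pH 7.5, 1 h at 30 °C. Phosphotyrosine detected by HRP-anti-pTyr ELISA with TMB read-out. Compounds screened at 10 μM or titrated from 50 μM in half-log steps for IC50, BSA-substrate background subtracted.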
Background: ELISA stands for enzyme-linked immunosorbent assay.

For assay [2], the target named is T2, CAK complex (human Cdk7, human Cyclin H, MAT-1) (Homo sapiens, UniProt P50613).
T2 construct: made in house; host or cells: SF-900 insect cells co-infected with Flag-Cdk7 and Bab-Cyclin H baculoviruses
T2 sequence (P50613 with tags, fused parts or gaps): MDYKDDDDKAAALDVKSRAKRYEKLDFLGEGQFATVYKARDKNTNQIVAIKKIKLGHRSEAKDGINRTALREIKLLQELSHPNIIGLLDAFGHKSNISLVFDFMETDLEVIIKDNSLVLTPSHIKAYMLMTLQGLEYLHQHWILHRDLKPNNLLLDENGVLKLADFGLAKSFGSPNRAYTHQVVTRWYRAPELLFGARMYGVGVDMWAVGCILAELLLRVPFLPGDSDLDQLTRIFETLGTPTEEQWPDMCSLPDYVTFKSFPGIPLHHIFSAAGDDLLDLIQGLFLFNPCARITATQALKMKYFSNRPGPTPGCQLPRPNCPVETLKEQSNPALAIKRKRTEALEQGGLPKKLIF
T2 sequence (as listed by the source partner): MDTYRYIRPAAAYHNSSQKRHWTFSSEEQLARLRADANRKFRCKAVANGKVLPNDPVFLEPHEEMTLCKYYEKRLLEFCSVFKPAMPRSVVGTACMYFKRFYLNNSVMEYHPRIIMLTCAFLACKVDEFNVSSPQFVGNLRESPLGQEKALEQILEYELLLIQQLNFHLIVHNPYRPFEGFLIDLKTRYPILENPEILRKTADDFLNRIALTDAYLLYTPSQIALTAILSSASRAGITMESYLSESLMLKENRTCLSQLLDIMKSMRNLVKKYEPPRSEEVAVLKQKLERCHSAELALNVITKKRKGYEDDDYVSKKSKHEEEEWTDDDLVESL
In words: in vitro time-resolved-fluorescence assay for the CAK kinase activity. Format: biochemical. To be noted: compound 20 uM; read-out: CAK % inhib; 20 uM. The procedure, abridged:
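Kinase activity of the human CAK complex (Flag-tagged Cdk7, Cyclin H, MAT-1), purified from co-infected SF-900 insect cells by Flag-M2 immunoaffinity, was measured by time-resolved fluorescence. In black glutathione-coated 96-well plates, 500 ng GST-CTD substrate with 22 uM ATP was mixed with compound in 30% DMSO/25 mM Hepes and 250 ng CAK. Plates were incubated 20 minutes at 30° C, then stopped with EDTA, bound overnight and washed. A Europium-labeled antibody detected serine-phosphorylated CTD.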

On to `CCN(CC)CCNC(=O)c1ccc(-n2nnc3cnc(Nc4ccc(N5CCN(Cc6ccccc6)CC5)cc4)nc32)cc1` [Compound 53, 4-{5-[4-(4-Benzyl-piperazin-1-yl)-phenylamino]-[1,2,3]triazolo[4,5-d]pyrimidin-3-yl}-N-(2-diethylamino-ethyl)-benzamide], for which, in assay [1], the inhibition at 10 µM stood at 60.5%. Also, the inhibition at 20 µM in assay [2] was found to be 43.7%.

Regarding `CCCCNS(=O)(=O)c1cccc(Nc2ncc3nnn(-c4ccc(N5CCN(Cc6ccccc6)CC5)cc4)c3n2)c1` [Compound 54, 3-{3-[4-(4-Benzyl-piperazin-1-yl)-phenyl]-3H-[1,2,3]triazolo[4,5-d]pyrimidin-5-ylamino}-N-butyl-benzene-sulfonamide], the inhibition at 10 µM in assay [1] came out at 15.2%. Also, the inhibition at 20 µM in assay [2] was 20.5%.

For the compound `CN(C1CCCCC1)S(=O)(=O)c1ccccc1Nc1ncc2nnn(-c3ccc(N4CCN(Cc5ccccc5)CC4)cc3)c2n1` [Compound 55, 2-{3-[4-(4-Benzyl-piperazin-1-yl)-phenyl]-3H-[1,2,3]triazolo[4,5-d]pyrimidin-5-ylamino}-N-cyclohexyl-N-methyl-benzene-sulfonamide], in assay [1], the inhibition at 10 µM turned out to be 10.8%. The inhibition at 20 µM in assay [2] was -6.2%.

Consider `CCN(CC)CCNC(=O)c1ccc(Nc2ncc3nnn(-c4ccc(N5CCN(Cc6ccccc6)CC5)cc4)c3n2)cc1` [Compound 56, 4-{3-[4-(4-Benzyl-piperazin-1-yl)-phenyl]-3H-[1,2,3]triazolo[4,5-d]pyrimidin-5-ylamino}-N-(2-diethylamino-ethyl)-benzamide], for which, in assay [1], the inhibition at 10 µM was found to be 75.5%. Besides, the inhibition at 20 µM in assay [2] was found to be 87.3%.

Consider `CCCCNS(=O)(=O)c1cccc(Nc2ncc3nnn(Cc4ccccc4)c3n2)c1` [Compound 57], for which the inhibition at 10 µM in assay [1] was determined as 22%. For the same compound, the inhibition at 20 µM in assay [2] amounted to 34.1%.

`CCN(CC)CCNC(=O)c1ccc(Nc2ncc3nnn(Cc4ccccc4)c3n2)cc1` [Compound 58, 4-(3-Benzyl-3H-[1,2,3]triazolo[4,5-d]pyrimidin-5-ylamino)-N-(2-diethylamino-ethyl)-benzamide]: the inhibition at 10 µM in assay [1] came to 59%. In assay [2], the inhibition at 20 µM was 58%.

On to `c1ccc(CN2CCN(c3ccc(Nc4ncc5nnn(Cc6ccccc6)c5n4)cc3)CC2)cc1` [Compound 59, [4-(4-Benzyl-piperazin-1-yl)-phenyl]-(3-benzyl-3H-[1,2,3]triazolo[4,5-d]pyrimidin-5-yl)-amine], for which the inhibition at 10 µM in assay [1] was determined as 25%. In assay [2], the inhibition at 20 µM stood at 47%.

On to `c1cc(Nc2ncc3nnn(C4CCc5ccccc54)c3n2)cc(-c2nnn[nH]2)c1` (stereo not shown) [Compound 60, (3-Indan-1-yl-3H-[1,2,3]triazolo[4,5-d]pyrimidin-5-yl)-[3-(1H-tetrazol-5-yl)-phenyl]-amine], for which the inhibition at 10 µM in assay [1] amounted to 26.8%. The inhibition at 20 µM in assay [2] was -0.99%.

As to `CCN(CC)CCNC(=O)c1ccc(Nc2ncc3nnn(C4CCc5ccccc54)c3n2)cc1` (stereo not shown) [Compound 61, N-(2-Diethylamino-ethyl)-4-(3-indan-1-yl-3H-[1,2,3]triazolo[4,5-d]pyrimidin-5-ylamino)-benzamide], the inhibition at 10 µM in assay [1] was 85.5%. Also, in assay [2], the inhibition at 20 µM was found to be 79.4%.

For `CCN(CC)CCNC(=O)c1ccc(Nc2ncc3nnn(-c4cccc(-c5nnn[nH]5)c4)c3n2)cc1` [Compound 62, N-(2-Diethylamino-ethyl)-4-{3-[3-(1H-tetrazol-5-yl)-phenyl]-3H-[1,2,3]triazolo[4,5-d]pyrimidin-5-ylamino}-benzamide], in assay [1], the inhibition at 10 µM was found to be 66.7%. The inhibition at 20 µM in assay [2] turned out to be 45.3%.

In the case of `CCOC(=O)N1CCC(n2nnc3cnc(Nc4cccc(-c5nnn[nH]5)c4)nc32)CC1` [Compound 63, 4-{5-[3-(1H-Tetrazol-5-yl)-phenylamino]-[1,2,3]triazolo[4,5-d]pyrimidin-3-yl}-piperidine-1-carboxylic acid ethyl ester], the inhibition at 10 µM in assay [1] came out at 59.8%. The inhibition at 20 µM in assay [2] stood at 39.3%.

Take `CCOC(=O)N1CCC(n2nnc3cnc(Nc4ccc(C(=O)NCCN(CC)CC)cc4)nc32)CC1` [Compound 64, 4-{5-[4-(2-Diethylamino-ethylcarbamoyl)-phenylamino]-[1,2,3]triazolo[4,5-d]pyrimidin-3-yl}-piperidine-1-carboxylic acid ethyl ester]: the inhibition at 10 µM in assay [1] is 29.1%. The inhibition at 20 µM in assay [2] turned out to be 33.9%.

As to `CCN(CC)CCNC(=O)c1ccc(-n2nnc3cnc(Nc4cccc(-c5nnn[nH]5)c4)nc32)cc1` [Compound 65, N-(2-Diethylamino-ethyl)-4-{5-[3-(1H-tetrazol-5-yl)-phenylamino]-[1,2,3]triazolo[4,5-d]pyrimidin-3-yl}-benzamide], in assay [1], the inhibition at 10 µM was 54.7%. The inhibition at 20 µM in assay [2] is 42.7%.

As to `CCN(CC)CCNC(=O)c1ccc(Nc2ncc3nnn(-c4cc[nH]n4)c3n2)cc1` [Compound 66], the inhibition at 10 µM in assay [1] stood at 87.2%. Also, the inhibition at 20 µM in assay [2] is 68.1%.

As to `c1cc(Nc2ncc3nnn(C4CCCC4)c3n2)cc(-c2nnn[nH]2)c1` [Compound 67, (3-Cyclopentyl-3H-[1,2,3]triazolo[4,5-d]pyrimidin-5-yl)-[3-(1H-tetrazol-5-yl)-phenyl]-amine], the inhibition at 10 µM in assay [1] came to 15.4%. The inhibition at 20 µM in assay [2] worked out at 44.2%.

`CCN(CC)CCNC(=O)c1ccc(Nc2ncc3nnn(C4CCCC4)c3n2)cc1` [Compound 68, 4-(3-Cyclopentyl-3H-[1,2,3]triazolo[4,5-d]pyrimidin-5-ylamino)-N-(2-diethylamino-ethyl)-benzamide]: the inhibition at 10 µM in assay [1] was determined as 56.5%. In addition, the inhibition at 20 µM in assay [2] came to 63.8%.

In the case of `CCN(CC)CCNC(=O)c1ccc(Nc2ncc3nnn(Cc4ccc(N(C)C)cc4)c3n2)cc1` [Compound 69, N-(2-Diethylamino-ethyl)-4-[3-(4-dimethylamino-benzyl)-3H-[1,2,3]triazolo[4,5-d]pyrimidin-5-ylamino]-benzamide], the inhibition at 10 µM in assay [1] was determined as 27%. Moreover, the inhibition at 20 µM in assay [2] is -11.4%.

For the compound `CCN(CC)CCNC(=O)c1ccc(Nc2ncc3nnn([C@@H](CO)[C@@H](O)c4ccccc4)c3n2)cc1` [Compound 70, N-(2-Diethylamino-ethyl)-4-[3-(2-hydroxy-1-hydroxymethyl-2-phenyl-ethyl)-3H-[1,2,3]triazolo[4,5-d]pyrimidin-5-ylamino]-benzamide], the inhibition at 10 µM in assay [1] was determined as 15%. Moreover, the inhibition at 20 µM in assay [2] was 21%.

Consider `CCN(CC)CCNC(=O)c1ccc(Nc2ncc3nnn(Cc4nc5ccccc5[nH]4)c3n2)cc1` [Compound 71, 4-[3-(1H-Benzoimidazol-2-ylmethyl)-3H-[1,2,3]triazolo[4,5-d]pyrimidin-5-ylamino]-N-(2-diethylamino-ethyl)-benzamide], for which the inhibition at 10 µM in assay [1] was found to be 27.5%. Also, the inhibition at 20 µM in assay [2] came out at 52.8%.

Regarding `O=C(NCCCN1CCCC1)c1cccc(Nc2ncc3nnn(-c4ccc5c(c4)CCC5)c3n2)c1` [Compound 72, 3-(3-Indan-5-yl-3H-[1,2,3]triazolo[4,5-d]pyrimidin-5-ylamino)-N-(3-pyrrolidin-1-yl-propyl)-benzamide], the inhibition at 10 µM in assay [1] is 81.5%. The inhibition at 20 µM in assay [2] was found to be 98.4%.

In the case of `O=C(NCCN1CCOCC1)c1cccc(Nc2ncc3nnn(-c4ccc5c(c4)CCC5)c3n2)c1` [Compound 73, 3-(3-Indan-5-yl-3H-[1,2,3]triazolo[4,5-d]pyrimidin-5-ylamino)-N-(2-morpholin-4-yl-ethyl)-benzamide], in assay [1], the inhibition at 10 µM worked out at 31.2%. For the same compound, the inhibition at 20 µM in assay [2] came to 47.5%.

In the case of `O=C(NCCCn1ccnc1)c1ccc(Nc2ncc3nnn(-c4ccc5c(c4)CCC5)c3n2)cc1` [Compound 74, N-(3-Imidazol-1-yl-propyl)-4-(3-indan-5-yl-3H-[1,2,3]triazolo[4,5-d]pyrimidin-5-ylamino)-benzamide], in assay [1], the inhibition at 10 µM worked out at 72.8%. Moreover, in assay [2], the inhibition at 20 µM is 42.7%.

As for `O=C(NCCCN1CCCC1)c1ccc(Nc2ncc3nnn(-c4ccc5c(c4)CCC5)c3n2)cc1` [Compound 75, 4-(3-Indan-5-yl-3H-[1,2,3]triazolo[4,5-d]pyrimidin-5-ylamino)-N-(3-pyrrolidin-1-yl-propyl)-benzamide], the inhibition at 10 µM in assay [1] came to 77.9%. The inhibition at 20 µM in assay [2] came out at 84%.

For `O=C(NCCN1CCOCC1)c1ccc(Nc2ncc3nnn(-c4ccc5c(c4)CCC5)c3n2)cc1` [Compound 76, 4-(3-Indan-5-yl-3H-[1,2,3]triazolo[4,5-d]pyrimidin-5-ylamino)-N-(2-morpholin-4-yl-ethyl)-benzamide], the inhibition at 10 µM in assay [1] came to 34.7%. Also, the inhibition at 20 µM in assay [2] is 10.2%.

Regarding `O=C(NCCCN1CCCC1=O)c1ccc(Nc2ncc3nnn(-c4ccc5c(c4)CCC5)c3n2)cc1` [Compound 77, 4-(3-Indan-5-yl-3H-[1,2,3]triazolo[4,5-d]pyrimidin-5-ylamino)-N-[3-(2-oxo-pyrrolidin-1-yl)-propyl]-benzamide], in assay [1], the inhibition at 10 µM was found to be 54.2%. In addition, the inhibition at 20 µM in assay [2] amounted to 72.1%.

Regarding `CN1CCN(CCCNC(=O)c2ccc(Nc3ncc4nnn(-c5ccc6c(c5)CCC6)c4n3)cc2)CC1` [Compound 78, 4-(3-Indan-5-yl-3H-[1,2,3]triazolo[4,5-d]pyrimidin-5-ylamino)-N-[3-(4-methyl-piperazin-1-yl)-propyl]-benzamide], in assay [1], the inhibition at 10 µM turned out to be 72%. Also, the inhibition at 20 µM in assay [2] was found to be 89%.
